Source: PMC7321065, “Discovery of New Schiff Bases Tethered Pyrazole Moiety: Design, Synthesis, Biological Evaluation, and Molecular Docking Study as Dual Targeting DHFR/DNA Gyrase Inhibitors with Immunomodulatory Activity” (Molecules, 2020)
≈ marks a conversion by molar mass, not a printed value.

How the values were obtained:
Candida albicans [1] = experiment: MIC/MFC, paper disk diffusion; assay type: cell-based; settings: Candida albicans
Protocol: (§1) Antimicrobial activities of the newly formed Schiff bases (6a–d, 7a–d, 8a–d, and 9a–d) and reference drugs were evaluated against three Gram-positive, three Gram-negative, and two fungi strain at Al-Azhar University, Cairo, Egypt. The inhibition zones (IZ, in mm ± standard deviation) and the minimal inhibitory concentration (MIC) (μg/mL) were determined by the conventional paper disk diffusion method.
(§2) In Vitro Antimicrobial Activities […]
(§3) DMSO was used for dissolving […]
(§4) the tested microorganisms.
(§5) The minimum inhibitory concentration (MIC), the minimum bactericidal concentration (MBC, µg/ml) and […]
(§6) and 9b) were determined by the conventional technique termed paper disk diffusion, by applying paper […]
(§7) Bacteria were grown on nutrient agar medium, while fungi and yeast were grown on Sabouraud agar medium. The purified streptomycin was dissolved in […]
(§8) inoculated with test organism. Growth inhibition was examined after 24 hr. from incubation at 37 °C for bacteria and after 72 hr. incubation at 27 °C for fungi and yeast. Each test was repeated three times. MIC was expressed as the lowest concentration inhibiting test organism’s growth. […]

Fusarium oxysporum [2] = experiment: MIC/MFC, paper disk diffusion; assay type: cell-based; settings: Fusarium oxysporum
Protocol: as §1, §2, §3, §4, §5, §6, §7, §8

Candida albicans [3] = experiment: Inhibition zone, agar plate diffusion; assay type: cell-based; settings: read-out: Inhibition zone (IZ)
Protocol: as §1
(§9) In Vitro Antimicrobial Activities
(§10) The antimicrobial activities inhibition zone (IZ, mm±standard deviation) of pyrazole Schiff bases ( 6a-d , 7a-d, 8a-d and 9a-d ) was measurement according to the agar plate diffusion method. Briefly, 100 µl of the […]
(§11) […] of each sample (at 0.5 mg/mL) was added to each well (10 mm diameter holes cut in the agar gel). The plates were incubated for 24 h at 37 °C (for bacteria and yeast) and for 72 h at 27 °C (for filamentous fungi), each test was repeated three times. After incubation, the microorganism's growth was observed. […]
(§12) drugs while Amphotericin B was used as standard antifungal drug. The resulting inhibition zone diameters were measured in millimeters and used as criterion for the antimicrobial activity. Solvent controls (DMSO) were included in every experiment as negative controls. DMSO was used for dissolving […]
(§13) the tested microorganisms. […]
(§14) Bacteria were grown on nutrient agar medium, while fungi and yeast were grown on Sabouraud agar medium. […]

Staphylococcus aureus [4] = experiment: Inhibition zone, agar plate diffusion; assay type: cell-based; settings: read-out: Inhibition zone (IZ)
Protocol: as §1, §9, §10, §11, §12, §13, §14

Fusarium oxysporum [5] = experiment: Inhibition zone, agar plate diffusion; assay type: cell-based; settings: read-out: Inhibition zone (IZ)
Protocol: as §1, §9, §10, §11, §12, §13, §14

Salmonella typhi [6] = experiment: Inhibition zone, agar plate diffusion; assay type: cell-based; settings: Salmonella enterica, St, mm ± standard deviation, sample at 0.5 mg/mL, read-out: Inhibition zone (IZ)
Protocol: as §1, §9, §10, §11, §12, §13, §14

[7] = system: S. aureus ATCC 43300 (MRSA); experiment: Inhibition zone against MDRB, agar plate diffusion; assay type: cell-based
Pseudomonas aeruginosa [8] = experiment: MIC/MBC, paper disk diffusion; assay type: cell-based; settings: Pseudomonas aeruginosa; for MBC: P. aeruginosa
Protocol: as §1, §2, §3, §4, §5, §6, §7, §8

Bacillus subtilis [9] = experiment: MIC/MBC, paper disk diffusion; assay type: cell-based; settings: for Fold more potent than Tetracycline (MIC) / MBC: B. subtilis; for MIC / MBC: Bacillus subtilis
Protocol: as §1, §2, §3, §4, §5, §6, §7, §8

Enterococcus faecalis [10] = experiment: MIC/MBC, paper disk diffusion; assay type: cell-based; settings: for MBC: E. faecalis
Protocol: as §1, §2, §3, §4, §5, §6, §7, §8

Staphylococcus aureus [11] = experiment: MIC/MBC, paper disk diffusion; assay type: cell-based; settings: Staphylococcus aureus; for MBC: S. aureus
Protocol: as §1, §2, §3, §4, §5, §6, §7, §8

Escherichia coli [12] = experiment: MIC/MBC, paper disk diffusion; assay type: cell-based; settings: Escherichia coli; for MBC: E. coli
Protocol: as §1, §2, §3, §4, §5, §6, §7, §8

Salmonella typhi [13] = experiment: MIC/MBC, paper disk diffusion; assay type: cell-based; settings: Salmonella enterica, S. typhi; for MBC: read-out: MBC
Protocol: as §1, §2, §3, §4, §5, §6, §7, §8

E. coli ATCC BAA-196 [14] = experiment: MIC/MBC against MDRB, paper disk diffusion; assay type: cell-based; settings: Escherichia coli, ATCCBAA196
From the text: (§15) The inhibition zone (IZ, mm±standard deviation) of pyrazole Schiff bases ( 6b, 7b, 7c, 8a, 8d and 9b) was
(§16) measurement according to the agar plate diffusion method against a panel of multidrug-resistant bacteria
(MDRB). […]

S. aureus ATCC 33591 [15] = experiment: MIC/MBC against MDRB, paper disk diffusion; assay type: cell-based; settings: Staphylococcus aureus, ATCC33591
From the text: as §15, §16
(MDRB). […]

[16] = system: S. aureus ATCC 43300 (MRSA); experiment: MIC/MBC against MDRB, paper disk diffusion; assay type: cell-based; settings: Staphylococcus aureus
From the text: as §15, §16
(MDRB). […]

[17] = system: P. aeruginosa ATCC BAA-2111; experiment: MIC/MBC against MDRB, paper disk diffusion; assay type: cell-based; settings: Pseudomonas aeruginosa, ATCCBAA2111
From the text: as §15, §16
(MDRB). […]

S. aureus ATCC 33591 [18] = experiment: Inhibition zone against MDRB, agar plate diffusion; assay type: cell-based
E. coli ATCC BAA-196 [19] = experiment: Inhibition zone against MDRB, agar plate diffusion; assay type: cell-based
[20] = system: mammary gland breast cancer cell line (MCF-7); experiment: Antiproliferative activity, MTT assay; assay type: cell-based, human; settings: Homo sapiens, MCF7, 48 h, read-out: IC50 MCF-7
Protocol: (§17) 3-[4, 5-Dimethyl-2-thiazolyl)-2, 5-diphenyl-2 H-tetrazolium bromide (MTT) protocol is based on the cleavage of the tetrazolium salt by mitochondrial dehydrogenases in viable cells. Cells were dispensed in a 96 well sterile microplate (5 x 10^4 cells/well), and incubated at 37 °C with series of different concentrations, in DMSO, of each tested compound or Doxorubicin ® (positive control) for 48 h in a serum free medium prior to the MTT assay. After incubation, media were carefully removed, 40 µL of MTT (2.5 mg/mL) were added to each well and then incubated for an additional 4 h. The purple formazan dye crystals were solubilized by the addition of 200 µL of DMSO. The absorbance was measured at 590 nm using a SpectraMax® Paradigm® Multi-Mode microplate reader. The relative cell viability was expressed as the mean percentage of viable cells compared to the untreated control cells.
(§18) All experiments were conducted in triplicate and repeated in three different days. All the values were represented as mean ± SD. IC 50s were determined by probit analysis using SPSS software program (SPSS

[21] = system: hepatocellular carcinoma cell line (HepG2); experiment: Antiproliferative activity, MTT assay; assay type: cell-based, human; settings: Homo sapiens, HepG2, 48 h, read-out: IC50 HepG-2
Protocol: as §17, §18

Pseudomonas aeruginosa [22] = experiment: Inhibition zone, agar plate diffusion; assay type: cell-based; settings: read-out: Inhibition zone (IZ)
Protocol: as §1, §9, §10, §11, §12, §13

Bacillus subtilis [23] = experiment: Inhibition zone, agar plate diffusion; assay type: cell-based; settings: read-out: Inhibition zone (IZ)
Protocol: as §1, §9, §10, §11, §12, §13

Enterococcus faecalis [24] = experiment: Inhibition zone, agar plate diffusion; assay type: cell-based; settings: read-out: Inhibition zone (IZ)
Protocol: as §1, §9, §10, §11, §12, §13

Escherichia coli [25] = experiment: Inhibition zone, agar plate diffusion; assay type: cell-based; settings: read-out: Inhibition zone (IZ)
Protocol: as §1, §9, §10, §11, §12, §13

[26] = system: P. aeruginosa ATCC BAA-2111; experiment: Inhibition zone against MDRB, agar plate diffusion; assay type: cell-based

Compound | MFC (Candida albicans [1]) | MIC (Candida albicans [1]) | MFC (Fusarium oxysporum [2]) | MIC (Fusarium oxysporum [2]) | zone of inhibition at 500 µg/mL (Candida albicans [3]) | zone of inhibition at 500 µg/mL (Staphylococcus aureus [4]) | zone of inhibition at 500 µg/mL (Fusarium oxysporum [5]) | zone of inhibition at 500 µg/mL (Salmonella typhi [6]) | Mean Diameter of Inhibition Zone against MDRB [7] | MIC (Pseudomonas aeruginosa [8]) | MBC (Pseudomonas aeruginosa [8]) | Fold more potent than Tetracycline (MIC) (Bacillus subtilis [9]) | MIC (Bacillus subtilis [9]) | MBC (Bacillus subtilis [9]) | MIC (Enterococcus faecalis [10]) | MBC (Enterococcus faecalis [10]) | MIC (Staphylococcus aureus [11]) | MBC (Staphylococcus aureus [11]) | MIC (Escherichia coli [12]) | MBC (Escherichia coli [12]) | also measured
COc1ccc(Nc2n[nH]c(N=Cc3ccc(N4CCCCC4)cc3)c2C(=O)Nc2ccc(Cl)cc2)cc1 [8d, N-(p-Chlorophenyl)-3-(p-methoxyphenylamino)-5-(4-(piperidin-1-yl)benzylideneamino)-1H-pyrazole-4-carboxamide] | 17.6 µg/mL (≈ 33.2 µM) | 9.25 µg/mL (≈ 17.5 µM) | 56.2 µg/mL (≈ 106 µM) | 31.2 µg/mL (≈ 59.1 µM) | 25 ± 0.33 mm | 25 ± 0.77 mm | 21 ± 0.16 mm | 23 ± 0.65 mm | 18 ± 0.5 mm | 27.8 µg/mL (≈ 52.5 µM) | 55.5 µg/mL (≈ 105 µM) | 8 fold | 3.9 µg/mL (≈ 7.37 µM) | 6.63 µg/mL (≈ 12.5 µM) | 15.6 µg/mL (≈ 29.5 µM) | 31.2 µg/mL (≈ 59.1 µM) | 7.81 µg/mL (≈ 14.8 µM) | 15.6 µg/mL (≈ 29.5 µM) | 7.81 µg/mL (≈ 14.8 µM) | 15.6 µg/mL (≈ 29.5 µM) | MIC (Salmonella typhi [13]): 18.5 µg/mL (≈ 35 µM); MBC (Salmonella typhi [13]): 36.5 µg/mL (≈ 69 µM); MBC (E. coli ATCC BAA-196 [14]): 31.2 µg/mL (≈ 59.1 µM); MIC (E. coli ATCC BAA-196 [14]): 15.6 µg/mL (≈ 29.5 µM); MBC (S. aureus ATCC 33591 [15]): 7.41 µg/mL (≈ 14 µM); MIC (S. aureus ATCC 33591 [15]): 3.9 µg/mL (≈ 7.37 µM); MBC [16]: 31.2 µg/mL (≈ 59.1 µM); MIC [16]: 15.6 µg/mL (≈ 29.5 µM); MBC [17]: 11.9 µg/mL (≈ 22.4 µM); MIC [17]: 6.25 µg/mL (≈ 11.8 µM); Mean Diameter of Inhibition Zone against MDRB (S. aureus ATCC 33591 [18]): 21 ± 0.23 mm; Mean Diameter of Inhibition Zone against MDRB (E. coli ATCC BAA-196 [19]): 16 ± 0.11 mm; IC50 [20]: 3.69 ± 0.22 µM; IC50 [21]: 2.63 ± 0.44 µM; zone of inhibition at 500 µg/mL (Pseudomonas aeruginosa [22]): 21 ± 0.2 mm; zone of inhibition at 500 µg/mL (Bacillus subtilis [23]): 24 ± 0.5 mm; zone of inhibition at 500 µg/mL (Enterococcus faecalis [24]): 23 ± 0.65 mm; zone of inhibition at 500 µg/mL (Escherichia coli [25]): 26 ± 0.11 mm; Mean Diameter of Inhibition Zone against MDRB [26]: 25 ± 0.99 mm
COc1ccc(Nc2n[nH]c(N=Cc3c(C)n(C)n(-c4ccccc4)c3=O)c2C(=O)Nc2ccccc2)cc1 [6b, 5-((1,5-Dimethyl-3-oxo-2-phenyl-2,3-dihydro-1H-pyrazol-4-yl)methyleneamino)-3-(p-methoxyphenylamino)-N-phenyl-1H-pyrazole-4-carboxamide] | 53.1 µg/mL (≈ 102 µM) | 31.2 µg/mL (≈ 59.9 µM) | 88.8 µg/mL (≈ 170 µM) | 55.5 µg/mL (≈ 106 µM) | 22 ± 0.56 mm | 24 ± 0.12 mm | 18 ± 0.15 mm | 20 ± 0.16 mm | 21 ± 0.21 mm | 31.2 µg/mL (≈ 59.9 µM) | 53.1 µg/mL (≈ 102 µM) | 4 fold | 7.81 µg/mL (≈ 15 µM) | 14.1 µg/mL (≈ 26.9 µM) | 9.25 µg/mL (≈ 17.7 µM) | 18.5 µg/mL (≈ 35.5 µM) | 15.6 µg/mL (≈ 29.9 µM) | 31.2 µg/mL (≈ 59.9 µM) | 62.5 µg/mL (≈ 120 µM) | 87.5 µg/mL (≈ 168 µM) | MIC (Salmonella typhi [13]): 15.6 µg/mL (≈ 29.9 µM); MBC (Salmonella typhi [13]): 28.1 µg/mL (≈ 53.9 µM); MBC (E. coli ATCC BAA-196 [14]): 7.41 µg/mL (≈ 14.2 µM); MIC (E. coli ATCC BAA-196 [14]): 3.9 µg/mL (≈ 7.48 µM); MBC (S. aureus ATCC 33591 [15]): 15.6 µg/mL (≈ 29.9 µM); MIC (S. aureus ATCC 33591 [15]): 7.81 µg/mL (≈ 15 µM); MBC [16]: 11.9 µg/mL (≈ 22.8 µM); MIC [16]: 6.25 µg/mL (≈ 12 µM); MBC [17]: 16 µg/mL (≈ 30.6 µM); MIC [17]: 7.81 µg/mL (≈ 15 µM); Mean Diameter of Inhibition Zone against MDRB (E. coli ATCC BAA-196 [19]): 25 ± 0.15 mm; IC50 [20]: 5.09 ± 0.52 µM; IC50 [21]: 3.42 ± 0.17 µM; zone of inhibition at 500 µg/mL (Pseudomonas aeruginosa [22]): 24 ± 0.2 mm; zone of inhibition at 500 µg/mL (Bacillus subtilis [23]): 30 ± 0.5 mm; zone of inhibition at 500 µg/mL (Enterococcus faecalis [24]): 29 ± 0.55 mm; zone of inhibition at 500 µg/mL (Escherichia coli [25]): 25 ± 0.81 mm; Mean Diameter of Inhibition Zone against MDRB [26]: 21 ± 0.66 mm
